For data set [1], the system named is adult bed bugs Cimex lectularius. In words: Vapor exposure of unconcealed bed bugs in sealed jar, 24 hour mortality. In kind it is in vivo. The conditions noted are these: one drop (about 25-30 mg) on filter paper in sealed 16 oz. glass jar. How it is done:
(§1) This test was undertaken employing unconcealed bed bugs. One drop (about 25-30 mg) of a naturally occurring aromatic test compound was applied to a filter paper and placed with a 16 oz. glass jar (3½ inches diameter×3⅞ inches high) containing ten adult bed bugs Cimex lectularius of both sexes. The jar was then sealed with a plastic lid. Five replicates of ten bed bugs were exposed to each of the test compounds. The test formulations were assessed for 24 hour mortality. A control jar with no test compound was also included in the testing.
The test was repeated with several other test compounds in the same manner: […]

For data set [2] the test system is unchanged. In words: Vapor exposure of concealed bed bugs (folded mattress ticking) in sealed jar, 72 hour mortality. It is filed as in vivo. The conditions noted are these: one drop (about 25-30 mg) on filter paper in sealed 16 oz. glass jar. How it is done:
as §1, with “conducted using concealed” for “undertaken employing unconcealed”, “sexes. A piece of folded mattress ticking was also placed in the jar to allow the bed bugs a place to hide.” for “sexes.”, “Mortality was” for “The test formulations were”, “at 72 hours.” for “for 24 hour mortality.”, “testing. The mortality results were as follows.” for “testing.”

Where [3] appears, read: repeated test with other compounds.

Turning to `CC(O)c1ccccc1` (stereo not shown) [Styralyl alcohol], the “24 hr Mean Mortality %” value in data set [1] (setting [3]) came out at 89.8%. For the same compound, in data set [2], the “72 hr Mean Mortality %” value is listed as 91.8%. In the case of `CC(C)[C@@H]1CC[C@@H](C)C(=O)C1` [Tetrahydrocarvone], the “24 hr Mean Mortality %” value in data set [1] (setting [3]) was 58.1%. For the same compound, the “72 hr Mean Mortality %” value in data set [2] came to 16.7%. On to `C=C(C)[C@H]1CC=C(C)C(=O)C1` [d-Carvone], for which the “24 hr Mean Mortality %” value in data set [1] (setting [3]) was 47.8%.

Regarding `C=C[C@@](C)(O)CCC=C(C)C` [d-Linalool], the “24 hr Mean Mortality %” value in data set [1] (setting [3]) stood at 92.0%. In the case of `C=C[C@](C)(O)CCC=C(C)C` [l-Linalool], in data set [1] (first test), the “24 hr Mean Mortality %” value was found to be 100.0%. Further, the “72 hr Mean Mortality %” value in data set [2] stood at 68%. As to l-Carvone, in data set [1] (first test), the “24 hr Mean Mortality %” value is 73.5%. Further, the “72 hr Mean Mortality %” value in data set [2] is 46.7%.

These data come from patent US20110213038A1, “CONTROL OF BED BUGS” (priority 2008, published 2011).
